Key:
Acetylcholinesterase = Acetylcholinesterase (Homo sapiens, UniProt P22303); type: functional
[1] = target: T1, Alpha-2A adrenergic receptor (Homo sapiens, UniProt P08913)
T1 sequence (P08913 whole entry): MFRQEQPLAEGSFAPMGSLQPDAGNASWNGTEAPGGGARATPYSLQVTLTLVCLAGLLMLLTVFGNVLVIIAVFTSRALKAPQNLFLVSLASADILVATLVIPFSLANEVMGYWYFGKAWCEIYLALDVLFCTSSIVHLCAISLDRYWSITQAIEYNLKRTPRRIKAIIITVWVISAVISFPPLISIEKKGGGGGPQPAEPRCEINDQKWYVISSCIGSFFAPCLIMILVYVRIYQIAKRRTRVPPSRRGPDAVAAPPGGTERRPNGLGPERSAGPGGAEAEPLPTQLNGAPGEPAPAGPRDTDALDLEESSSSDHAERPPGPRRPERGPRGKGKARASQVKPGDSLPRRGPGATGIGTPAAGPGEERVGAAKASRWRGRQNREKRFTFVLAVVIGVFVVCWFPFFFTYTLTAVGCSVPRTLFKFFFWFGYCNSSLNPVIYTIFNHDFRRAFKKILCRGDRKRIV

[2] = target: Beta-2 adrenergic receptor (Homo sapiens, UniProt P07550); type: functional, cell-based
Sequence of Beta-2 adrenergic receptor (P07550 whole entry): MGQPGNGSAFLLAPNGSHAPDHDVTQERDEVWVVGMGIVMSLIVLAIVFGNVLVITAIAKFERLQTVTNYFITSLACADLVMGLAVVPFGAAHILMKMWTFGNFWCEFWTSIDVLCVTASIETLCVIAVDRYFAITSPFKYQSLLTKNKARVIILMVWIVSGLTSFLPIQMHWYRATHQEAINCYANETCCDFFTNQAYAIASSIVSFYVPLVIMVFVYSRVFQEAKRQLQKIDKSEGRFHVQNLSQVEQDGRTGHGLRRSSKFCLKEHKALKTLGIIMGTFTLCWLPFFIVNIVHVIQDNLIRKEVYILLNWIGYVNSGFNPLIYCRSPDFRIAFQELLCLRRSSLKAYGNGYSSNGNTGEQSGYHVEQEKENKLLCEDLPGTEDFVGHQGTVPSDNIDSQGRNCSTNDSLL

[3] = target: T2, Muscarinic acetylcholine receptor M1 (Homo sapiens, UniProt P11229); type: functional, cell-based
T2 sequence (P11229 whole entry): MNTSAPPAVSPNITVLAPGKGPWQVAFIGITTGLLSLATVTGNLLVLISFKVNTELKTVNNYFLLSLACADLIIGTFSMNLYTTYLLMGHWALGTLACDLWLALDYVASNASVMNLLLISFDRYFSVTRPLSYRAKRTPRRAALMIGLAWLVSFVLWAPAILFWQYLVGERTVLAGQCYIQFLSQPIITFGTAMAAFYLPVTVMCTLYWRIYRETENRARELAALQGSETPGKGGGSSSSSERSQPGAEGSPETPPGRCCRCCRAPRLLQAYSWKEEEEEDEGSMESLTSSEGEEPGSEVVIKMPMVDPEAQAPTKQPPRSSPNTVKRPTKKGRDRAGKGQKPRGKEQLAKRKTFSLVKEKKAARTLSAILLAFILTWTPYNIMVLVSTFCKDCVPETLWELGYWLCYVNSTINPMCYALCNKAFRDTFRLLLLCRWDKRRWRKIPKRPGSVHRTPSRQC

[4] = target: T2, Muscarinic acetylcholine receptor M1; type: functional, cell-based; remark: listed apart in the source
[5] = target: T2, Muscarinic acetylcholine receptor M1; type: functional
Endothelin-1 receptor = target: T3, Endothelin-1 receptor (Homo sapiens, UniProt P25101)
T3 sequence (P25101 whole entry): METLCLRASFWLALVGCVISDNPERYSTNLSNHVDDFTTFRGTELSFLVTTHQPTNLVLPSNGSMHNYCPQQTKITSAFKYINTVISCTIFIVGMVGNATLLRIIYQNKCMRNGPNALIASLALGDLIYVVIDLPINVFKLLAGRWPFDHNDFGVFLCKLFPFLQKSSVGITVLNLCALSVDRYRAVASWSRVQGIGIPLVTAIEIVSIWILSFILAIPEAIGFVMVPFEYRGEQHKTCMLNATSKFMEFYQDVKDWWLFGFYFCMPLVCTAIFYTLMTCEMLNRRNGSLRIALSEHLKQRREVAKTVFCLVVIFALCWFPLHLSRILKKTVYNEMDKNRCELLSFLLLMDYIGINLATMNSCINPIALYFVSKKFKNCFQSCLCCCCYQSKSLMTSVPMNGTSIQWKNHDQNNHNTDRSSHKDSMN

Prothrombin = Prothrombin (Homo sapiens, UniProt P00734); type: functional
[6] = target: cGMP-inhibited 3',5'-cyclic phosphodiesterase 3A (Homo sapiens, UniProt Q14432); type: functional
Sequence of cGMP-inhibited 3',5'-cyclic phosphodiesterase 3A (Q14432 whole entry): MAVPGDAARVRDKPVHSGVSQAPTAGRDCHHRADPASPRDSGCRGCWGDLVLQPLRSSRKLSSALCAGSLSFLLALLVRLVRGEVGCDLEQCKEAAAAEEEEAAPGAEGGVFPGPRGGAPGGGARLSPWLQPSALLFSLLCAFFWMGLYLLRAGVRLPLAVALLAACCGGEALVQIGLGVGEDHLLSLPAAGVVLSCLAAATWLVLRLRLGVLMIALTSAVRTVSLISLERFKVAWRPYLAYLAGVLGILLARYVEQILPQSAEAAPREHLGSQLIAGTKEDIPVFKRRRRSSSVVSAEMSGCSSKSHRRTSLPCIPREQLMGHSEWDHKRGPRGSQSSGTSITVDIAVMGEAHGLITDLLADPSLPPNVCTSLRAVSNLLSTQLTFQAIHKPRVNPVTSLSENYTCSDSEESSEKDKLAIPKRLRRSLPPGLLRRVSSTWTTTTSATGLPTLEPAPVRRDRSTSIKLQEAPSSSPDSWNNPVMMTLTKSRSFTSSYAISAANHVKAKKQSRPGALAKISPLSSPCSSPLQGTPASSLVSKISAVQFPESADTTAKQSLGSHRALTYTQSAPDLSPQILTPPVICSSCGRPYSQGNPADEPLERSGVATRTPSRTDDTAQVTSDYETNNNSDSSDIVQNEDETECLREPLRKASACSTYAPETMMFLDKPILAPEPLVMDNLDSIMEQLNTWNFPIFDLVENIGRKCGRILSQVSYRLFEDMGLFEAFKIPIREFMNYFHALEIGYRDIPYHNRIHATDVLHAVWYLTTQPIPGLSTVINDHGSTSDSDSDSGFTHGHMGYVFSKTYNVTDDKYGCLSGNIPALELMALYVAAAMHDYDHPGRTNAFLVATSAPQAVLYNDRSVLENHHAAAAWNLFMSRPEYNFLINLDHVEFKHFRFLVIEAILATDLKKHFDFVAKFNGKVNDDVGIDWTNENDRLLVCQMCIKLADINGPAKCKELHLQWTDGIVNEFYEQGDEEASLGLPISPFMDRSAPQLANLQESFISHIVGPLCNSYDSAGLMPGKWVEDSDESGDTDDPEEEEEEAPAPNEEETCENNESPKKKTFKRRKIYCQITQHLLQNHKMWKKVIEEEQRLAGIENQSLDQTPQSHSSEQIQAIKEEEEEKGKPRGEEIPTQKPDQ

[7] = target: Sodium-dependent serotonin transporter (Homo sapiens, UniProt P31645)
Sequence of Sodium-dependent serotonin transporter (P31645 whole entry): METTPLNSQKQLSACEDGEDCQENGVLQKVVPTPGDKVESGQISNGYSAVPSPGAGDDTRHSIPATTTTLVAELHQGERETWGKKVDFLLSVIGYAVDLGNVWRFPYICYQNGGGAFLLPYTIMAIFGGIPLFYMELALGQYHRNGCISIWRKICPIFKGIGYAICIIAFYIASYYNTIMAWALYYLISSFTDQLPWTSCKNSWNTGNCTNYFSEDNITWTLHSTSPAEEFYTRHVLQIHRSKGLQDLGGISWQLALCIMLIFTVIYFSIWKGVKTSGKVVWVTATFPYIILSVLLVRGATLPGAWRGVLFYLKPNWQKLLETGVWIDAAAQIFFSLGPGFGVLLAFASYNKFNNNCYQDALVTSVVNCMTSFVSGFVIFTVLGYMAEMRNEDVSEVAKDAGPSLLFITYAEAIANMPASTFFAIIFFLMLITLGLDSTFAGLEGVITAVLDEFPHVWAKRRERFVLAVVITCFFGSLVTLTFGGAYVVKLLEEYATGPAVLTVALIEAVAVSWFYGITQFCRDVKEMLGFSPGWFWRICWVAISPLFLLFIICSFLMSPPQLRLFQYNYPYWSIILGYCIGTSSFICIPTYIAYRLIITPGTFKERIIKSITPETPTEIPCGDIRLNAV

Estrogen receptor = target: T4, Estrogen receptor (Homo sapiens, UniProt P03372)
T4 sequence (P03372 whole entry): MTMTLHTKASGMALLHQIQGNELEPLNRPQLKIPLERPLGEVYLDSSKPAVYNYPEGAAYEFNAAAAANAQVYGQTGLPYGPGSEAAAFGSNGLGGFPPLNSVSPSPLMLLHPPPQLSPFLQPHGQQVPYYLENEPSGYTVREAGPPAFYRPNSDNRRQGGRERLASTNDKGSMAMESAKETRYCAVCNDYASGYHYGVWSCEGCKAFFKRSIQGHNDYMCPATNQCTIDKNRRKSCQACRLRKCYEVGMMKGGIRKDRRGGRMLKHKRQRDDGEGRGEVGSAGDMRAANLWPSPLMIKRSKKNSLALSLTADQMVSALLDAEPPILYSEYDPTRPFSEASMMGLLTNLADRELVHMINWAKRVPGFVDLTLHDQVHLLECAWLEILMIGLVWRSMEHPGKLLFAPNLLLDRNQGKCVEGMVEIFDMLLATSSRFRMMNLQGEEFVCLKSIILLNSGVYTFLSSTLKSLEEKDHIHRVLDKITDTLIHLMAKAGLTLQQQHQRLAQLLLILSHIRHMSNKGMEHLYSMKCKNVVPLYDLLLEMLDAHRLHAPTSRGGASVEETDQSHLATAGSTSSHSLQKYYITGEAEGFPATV

[8] = target: Voltage-dependent L-type calcium channel subunit alpha-1C (Rattus norvegicus, UniProt P22002); type: functional
Sequence of Voltage-dependent L-type calcium channel subunit alpha-1C (P22002 whole entry): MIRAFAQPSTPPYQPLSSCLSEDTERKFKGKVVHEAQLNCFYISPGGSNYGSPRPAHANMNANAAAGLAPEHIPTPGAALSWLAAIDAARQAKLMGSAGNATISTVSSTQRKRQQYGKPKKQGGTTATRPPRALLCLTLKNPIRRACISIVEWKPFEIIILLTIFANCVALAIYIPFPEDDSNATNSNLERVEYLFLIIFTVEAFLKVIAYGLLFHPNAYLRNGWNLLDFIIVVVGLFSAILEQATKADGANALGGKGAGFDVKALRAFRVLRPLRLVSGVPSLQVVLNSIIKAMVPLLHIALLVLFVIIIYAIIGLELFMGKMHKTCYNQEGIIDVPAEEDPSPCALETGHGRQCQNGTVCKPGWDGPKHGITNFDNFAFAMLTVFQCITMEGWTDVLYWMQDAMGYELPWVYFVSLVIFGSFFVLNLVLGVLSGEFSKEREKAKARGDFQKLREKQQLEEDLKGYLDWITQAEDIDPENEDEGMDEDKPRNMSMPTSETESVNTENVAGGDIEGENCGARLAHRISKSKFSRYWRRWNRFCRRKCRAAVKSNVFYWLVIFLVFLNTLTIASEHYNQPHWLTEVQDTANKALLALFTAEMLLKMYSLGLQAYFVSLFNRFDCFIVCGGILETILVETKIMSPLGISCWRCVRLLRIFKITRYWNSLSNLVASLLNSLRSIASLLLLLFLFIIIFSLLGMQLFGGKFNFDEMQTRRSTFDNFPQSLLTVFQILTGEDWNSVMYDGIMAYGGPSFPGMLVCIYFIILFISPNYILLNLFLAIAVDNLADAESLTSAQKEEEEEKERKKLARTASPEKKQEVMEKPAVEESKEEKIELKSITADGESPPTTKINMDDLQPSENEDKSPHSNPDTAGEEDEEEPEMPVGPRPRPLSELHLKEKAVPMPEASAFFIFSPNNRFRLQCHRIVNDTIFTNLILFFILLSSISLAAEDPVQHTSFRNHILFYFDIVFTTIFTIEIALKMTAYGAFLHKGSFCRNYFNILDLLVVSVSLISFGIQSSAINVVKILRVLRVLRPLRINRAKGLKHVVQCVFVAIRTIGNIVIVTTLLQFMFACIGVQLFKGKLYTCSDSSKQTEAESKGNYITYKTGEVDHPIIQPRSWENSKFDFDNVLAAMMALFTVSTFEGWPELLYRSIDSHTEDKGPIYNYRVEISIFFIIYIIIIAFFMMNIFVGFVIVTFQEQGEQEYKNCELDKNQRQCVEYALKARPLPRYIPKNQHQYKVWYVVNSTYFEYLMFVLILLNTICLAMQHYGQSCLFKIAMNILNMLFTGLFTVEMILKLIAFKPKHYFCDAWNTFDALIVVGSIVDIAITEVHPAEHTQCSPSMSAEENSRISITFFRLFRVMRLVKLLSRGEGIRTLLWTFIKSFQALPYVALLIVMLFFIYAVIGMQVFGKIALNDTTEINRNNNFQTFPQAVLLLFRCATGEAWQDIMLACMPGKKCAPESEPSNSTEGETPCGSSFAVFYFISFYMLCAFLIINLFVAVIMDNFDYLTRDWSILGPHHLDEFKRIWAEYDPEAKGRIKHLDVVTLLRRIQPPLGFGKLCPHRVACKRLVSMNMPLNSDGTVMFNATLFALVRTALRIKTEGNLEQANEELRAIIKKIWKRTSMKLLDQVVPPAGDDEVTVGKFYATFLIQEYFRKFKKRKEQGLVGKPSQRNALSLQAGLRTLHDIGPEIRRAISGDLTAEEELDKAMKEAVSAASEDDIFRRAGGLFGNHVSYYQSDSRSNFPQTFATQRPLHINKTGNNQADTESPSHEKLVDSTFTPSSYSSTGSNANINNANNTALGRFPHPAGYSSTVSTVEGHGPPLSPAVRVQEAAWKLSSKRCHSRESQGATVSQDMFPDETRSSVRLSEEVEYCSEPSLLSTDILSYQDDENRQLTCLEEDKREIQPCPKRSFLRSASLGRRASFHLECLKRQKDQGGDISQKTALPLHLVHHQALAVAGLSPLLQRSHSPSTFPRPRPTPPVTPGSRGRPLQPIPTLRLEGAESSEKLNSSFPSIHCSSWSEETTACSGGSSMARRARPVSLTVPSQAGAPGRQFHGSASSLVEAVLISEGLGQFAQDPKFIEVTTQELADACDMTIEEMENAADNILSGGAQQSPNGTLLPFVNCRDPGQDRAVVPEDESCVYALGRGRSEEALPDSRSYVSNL

Melanocortin receptor 4 = Melanocortin receptor 4 (Homo sapiens, UniProt P32245)
[9] = target: T5, Neuropeptide Y receptor type 1 (Homo sapiens, UniProt P25929)
T5 sequence (P25929 whole entry): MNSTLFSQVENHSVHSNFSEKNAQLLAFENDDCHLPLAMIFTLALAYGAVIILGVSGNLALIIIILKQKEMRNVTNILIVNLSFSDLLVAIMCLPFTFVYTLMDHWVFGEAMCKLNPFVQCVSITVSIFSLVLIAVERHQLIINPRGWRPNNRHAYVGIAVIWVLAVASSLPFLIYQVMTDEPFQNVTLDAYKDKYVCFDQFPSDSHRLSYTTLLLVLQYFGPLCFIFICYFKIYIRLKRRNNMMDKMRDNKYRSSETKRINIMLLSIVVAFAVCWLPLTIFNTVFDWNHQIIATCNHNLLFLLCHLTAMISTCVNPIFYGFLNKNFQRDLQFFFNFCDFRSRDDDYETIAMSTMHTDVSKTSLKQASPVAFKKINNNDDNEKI

[10] = target: Kappa-type opioid receptor (Homo sapiens, UniProt P41145)
Note: assay procedure not described here.

Sequence of Acetylcholinesterase (P22303 whole entry): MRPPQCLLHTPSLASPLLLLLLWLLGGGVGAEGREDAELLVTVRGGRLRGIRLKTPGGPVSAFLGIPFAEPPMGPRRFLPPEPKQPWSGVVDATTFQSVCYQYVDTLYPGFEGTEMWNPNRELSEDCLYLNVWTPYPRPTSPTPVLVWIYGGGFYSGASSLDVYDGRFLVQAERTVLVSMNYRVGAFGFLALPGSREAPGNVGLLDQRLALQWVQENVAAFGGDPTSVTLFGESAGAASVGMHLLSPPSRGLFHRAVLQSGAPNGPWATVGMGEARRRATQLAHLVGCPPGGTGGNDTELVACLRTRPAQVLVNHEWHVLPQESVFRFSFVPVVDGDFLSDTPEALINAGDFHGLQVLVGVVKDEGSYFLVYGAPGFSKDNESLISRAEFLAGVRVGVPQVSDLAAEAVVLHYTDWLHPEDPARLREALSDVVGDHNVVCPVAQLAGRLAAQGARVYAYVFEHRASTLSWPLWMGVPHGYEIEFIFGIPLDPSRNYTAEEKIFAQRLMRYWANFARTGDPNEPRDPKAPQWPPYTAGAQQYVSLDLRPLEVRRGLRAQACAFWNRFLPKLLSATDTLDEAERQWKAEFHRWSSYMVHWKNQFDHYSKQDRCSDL

Structure (SMILES) | AC50 (Acetylcholinesterase) | AC50 [1] | AC50 [2] | AC50 [3] | AC50 [4] | AC50 [5] | AC50 (Endothelin-1 receptor) | AC50 (Prothrombin) | AC50 [6] | AC50 [7] | AC50 (Estrogen receptor) | AC50 [8] | AC50 (Melanocortin receptor 4) | AC50 [9] | AC50 [10]
COCCCN1CCC(NC(=O)c2cc(Cl)c(N)c3c2OCC3)CC1 [PRUCALOPRIDE] | 26.7 µM | > 30 µM | > 30 µM | > 30 µM | > 30 µM | > 30 µM | > 30 µM | > 30 µM | > 30 µM | > 30 µM | – | – | – | – | –
O=C(OCC(O)CO)c1ccccc1Nc1ccnc2cc(Cl)ccc12 (stereo not given) [GLAFENINE] | > 30 µM | > 30 µM | > 30 µM | > 30 µM | 7.51 µM | > 30 µM | > 30 µM | > 30 µM | > 30 µM | > 30 µM | > 30 µM | – | – | – | –
NCC(CC(=O)O)c1ccc(Cl)cc1 (stereo not given) [BACLOFEN] | > 30 µM | > 30 µM | > 30 µM | – | – | – | > 30 µM | > 30 µM | > 30 µM | – | – | > 10 µM | > 30 µM | > 30 µM | > 10 µM
O=C(Cc1ccc(-c2ccccc2)cc1)Nc1ccccn1 [DIFENPIRAMIDE] | > 30 µM | > 30 µM | > 30 µM | > 30 µM | > 10 µM | > 30 µM | – | > 30 µM | > 30 µM | > 30 µM | > 30 µM | – | – | – | > 30 µM
CO[C@H]1C[C@@H]2CC[C@@H](C)[C@@](O)(O2)C(=O)C(=O)N2CCCC[C@H]2C(=O)O[C@H]([C@H](C)C[C@@H]2CC[C@@H](O)[C@H](OC)C2)CC(=O)[C@H](C)/C=C(\C)[C@@H](O)[C@@H](OC)C(=O)[C@H](C)C[C@H](C)/C=C/C=C/C=C/1C [SIROLIMUS] | > 30 µM | > 30 µM | > 30 µM | – | – | – | > 30 µM | > 30 µM | > 30 µM | – | > 30 µM | > 10 µM | > 30 µM | > 30 µM | > 10 µM
CN(C)CCC(c1ccc(Cl)cc1)c1ccccn1 (stereo not given) [CHLORPHENIRAMINE] | – | – | > 30 µM | – | – | – | > 30 µM | – | – | – | – | > 10 µM | > 30 µM | > 30 µM | > 10 µM
Cc1ccc(-c2cc(C(F)(F)F)nn2-c2ccc(S(N)(=O)=O)cc2)cc1 [CELECOXIB] | – | – | > 30 µM | – | – | – | > 30 µM | – | – | – | – | > 10 µM | > 10 µM | > 10 µM | > 10 µM

From ChEMBL document CHEMBL5291721, “A preclinical secondary pharmacology resource illuminates target-adverse drug reaction associations of marketed drugs” (Nat Commun, 2023)
